Results from patent publication US11111500B2, “Mutated protoporphyrinogen IX oxidase (PPX) genes” (CIBUS US LLC, priority 2010, dated 2021).

Test system: potato plastidal PPX
Test: Tolerance to sulfentrazone of HemG mutant E. coli complemented with potato plastidal PPX (plate selection, colony count)
Format: cell-based, Solanum tuberosum
Details: wild-type potato plastidal PPX clone in hemG mutant E. coli
Text: StcPPX1, less its chloroplast transit peptide was cloned from cDNA into Cibus' proprietary functional screening vector. This vector may be used both for functional screening, and for GRON QC. The potato PPX genes were used to complement the HemG mutant strain of E. coli, which lacks a functional HemG gene, a bacterial homolog of PPX. Without a complementing gene, the media must be supplemented with hematin for E. coli growth.
In order to assess mutations that confer tolerance to PPX inhibitors such as Chateau (flumioxazin-Valent/Sumitomo), Naja (diphenylether—MAI) or Kixor (saflufenacil—BASF). Pure active ingredients for the PPX inhibiting herbicides Chateau (flumioxazin—Valent/Sumitomo), Spartan (sulfentrazone—FMC) and Kixor/Sharpen (saflufenacil—BASF) were obtained. […]
Liquid culture selection conditions were developed for both sulfentrazone and flumioxazin. […] Spectrophotometric readings (OD600) were taken for each sample (1:4 dilution) and a sample of each plated on LB-Chlor-IPTG plates to determine whether the OD600 correlated with the number of viable colonies. […]
Randomly mutagenized plasmids (5′ and 3′ ends) were transformed into XL1-Blue E. coli cells. […] Colony counts were compared between the two and mutation tolerance determined based on the percentage of colonies on the 0.75 mM sulfentrazone plates as compared with those on the 0 mM plates. […]

For `Cc1nn(-c2cc(NS(C)(=O)=O)c(Cl)cc2Cl)c(=O)n1C(F)F` [sulfentrazone], which “sulfentrazone concentration on which the wildtype construct did not grow” value is on record?
The value was 2.5 mM.
